Laboratory results taken from ChEMBL document CHEMBL3576815, “Tankyrase 1 Inhibitors with Drug-like Properties Identified by Screening a DNA-Encoded Chemical Library” (J Med Chem, 2015).

Key:
[1] = target: Poly [ADP-ribose] polymerase 1 (Homo sapiens, UniProt P09874); assay: Inhibition of full length PARP1 (unknown origin) expressed in Escherichia coli BL21 (DE3) assessed as reduction in ADP-ribosyl transferase activity using NAD+ by chemiluminescence detection based assay
[2] = target: T1, Protein mono-ADP-ribosyltransferase PARP10 (Homo sapiens, UniProt Q53GL7); assay: Inhibition of full length PARP10 (unknown origin) expressed in Escherichia coli BL21 (DE3) assessed as reduction in ADP-ribosyl transferase activity using NAD+ by chemiluminescence detection based assay
T1 sequence (Q53GL7 whole entry): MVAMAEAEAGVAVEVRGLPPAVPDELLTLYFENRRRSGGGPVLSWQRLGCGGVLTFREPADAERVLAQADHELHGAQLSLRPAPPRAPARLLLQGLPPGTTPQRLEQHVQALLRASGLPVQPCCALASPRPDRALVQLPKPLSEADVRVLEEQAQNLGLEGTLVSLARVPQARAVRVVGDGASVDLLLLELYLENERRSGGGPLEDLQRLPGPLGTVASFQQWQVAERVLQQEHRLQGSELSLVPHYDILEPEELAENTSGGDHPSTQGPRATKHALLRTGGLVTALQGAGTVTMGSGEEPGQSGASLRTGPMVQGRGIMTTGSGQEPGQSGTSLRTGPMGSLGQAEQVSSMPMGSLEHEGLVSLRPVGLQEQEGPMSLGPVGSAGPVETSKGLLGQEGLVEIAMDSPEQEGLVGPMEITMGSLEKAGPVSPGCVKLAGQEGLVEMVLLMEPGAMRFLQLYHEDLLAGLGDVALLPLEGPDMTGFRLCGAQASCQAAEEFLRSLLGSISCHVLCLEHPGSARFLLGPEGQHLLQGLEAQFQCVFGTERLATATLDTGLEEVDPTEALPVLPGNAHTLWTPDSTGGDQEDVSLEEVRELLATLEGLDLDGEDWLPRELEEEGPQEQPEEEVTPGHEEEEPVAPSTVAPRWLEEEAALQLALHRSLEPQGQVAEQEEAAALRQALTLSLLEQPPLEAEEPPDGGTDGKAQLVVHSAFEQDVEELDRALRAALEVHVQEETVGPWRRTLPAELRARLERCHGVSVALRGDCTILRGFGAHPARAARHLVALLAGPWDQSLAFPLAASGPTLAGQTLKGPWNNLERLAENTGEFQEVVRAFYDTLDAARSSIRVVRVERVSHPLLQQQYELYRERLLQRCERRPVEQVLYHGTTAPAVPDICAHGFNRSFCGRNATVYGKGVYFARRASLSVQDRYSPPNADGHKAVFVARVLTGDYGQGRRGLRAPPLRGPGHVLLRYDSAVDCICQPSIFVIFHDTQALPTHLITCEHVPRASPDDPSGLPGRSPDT

[3] = target: T2, Poly [ADP-ribose] polymerase tankyrase-1 (Homo sapiens, UniProt O95271); assay: Inhibition of hexa-histidine tagged recombinant tankyrase 1 biotinylated catalytic domain (amino acids 1106 to 1325) (unknown origin) expressed in Escherichia coli BL21 (DE3) assessed as reduction in ADP-ribosyl transferase activity using NAD+ by chemiluminescence detection based assay
T2 sequence (O95271 whole entry): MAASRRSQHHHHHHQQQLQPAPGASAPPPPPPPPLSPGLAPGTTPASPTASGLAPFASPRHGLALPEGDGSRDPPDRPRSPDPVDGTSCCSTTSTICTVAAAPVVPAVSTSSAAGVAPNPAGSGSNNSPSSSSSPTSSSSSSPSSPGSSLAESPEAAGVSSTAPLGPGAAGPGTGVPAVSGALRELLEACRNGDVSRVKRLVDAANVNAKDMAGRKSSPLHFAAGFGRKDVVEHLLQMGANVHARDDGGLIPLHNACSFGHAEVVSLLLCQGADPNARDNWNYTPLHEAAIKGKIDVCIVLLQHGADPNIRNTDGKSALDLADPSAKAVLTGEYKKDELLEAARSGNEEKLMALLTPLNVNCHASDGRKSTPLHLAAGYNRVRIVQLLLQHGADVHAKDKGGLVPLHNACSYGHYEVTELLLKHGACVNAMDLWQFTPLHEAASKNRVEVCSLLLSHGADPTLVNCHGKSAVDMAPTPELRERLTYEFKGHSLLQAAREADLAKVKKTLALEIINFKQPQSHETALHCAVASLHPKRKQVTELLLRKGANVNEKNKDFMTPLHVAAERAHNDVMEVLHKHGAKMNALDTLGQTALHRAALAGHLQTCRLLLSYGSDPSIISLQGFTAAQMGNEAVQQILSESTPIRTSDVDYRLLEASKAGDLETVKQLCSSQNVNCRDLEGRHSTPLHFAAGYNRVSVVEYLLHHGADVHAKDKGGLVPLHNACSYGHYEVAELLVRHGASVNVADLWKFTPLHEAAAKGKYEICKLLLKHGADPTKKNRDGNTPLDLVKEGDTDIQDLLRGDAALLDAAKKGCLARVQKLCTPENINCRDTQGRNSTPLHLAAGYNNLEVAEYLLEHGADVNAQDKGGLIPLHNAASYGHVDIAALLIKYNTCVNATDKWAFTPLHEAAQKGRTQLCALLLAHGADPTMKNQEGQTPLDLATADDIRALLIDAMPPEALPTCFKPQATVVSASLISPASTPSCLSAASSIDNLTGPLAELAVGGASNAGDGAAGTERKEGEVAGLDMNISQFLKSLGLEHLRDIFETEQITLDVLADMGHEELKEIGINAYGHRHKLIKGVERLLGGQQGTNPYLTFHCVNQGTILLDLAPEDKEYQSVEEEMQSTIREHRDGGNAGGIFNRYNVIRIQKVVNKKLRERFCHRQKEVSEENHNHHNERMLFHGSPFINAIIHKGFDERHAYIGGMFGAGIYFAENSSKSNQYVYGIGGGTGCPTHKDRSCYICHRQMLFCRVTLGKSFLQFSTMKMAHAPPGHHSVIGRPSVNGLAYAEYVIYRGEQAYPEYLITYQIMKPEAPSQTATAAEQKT

[4] = target: T3, Poly [ADP-ribose] polymerase tankyrase-2 (Homo sapiens, UniProt Q9H2K2); assay: Inhibition of tankyrase 2 catalytic domain (unknown origin) expressed in Escherichia coli BL21 (DE3) assessed as reduction in ADP-ribosyl transferase activity using NAD+ by chemiluminescence detection based assay
T3 sequence (Q9H2K2 whole entry): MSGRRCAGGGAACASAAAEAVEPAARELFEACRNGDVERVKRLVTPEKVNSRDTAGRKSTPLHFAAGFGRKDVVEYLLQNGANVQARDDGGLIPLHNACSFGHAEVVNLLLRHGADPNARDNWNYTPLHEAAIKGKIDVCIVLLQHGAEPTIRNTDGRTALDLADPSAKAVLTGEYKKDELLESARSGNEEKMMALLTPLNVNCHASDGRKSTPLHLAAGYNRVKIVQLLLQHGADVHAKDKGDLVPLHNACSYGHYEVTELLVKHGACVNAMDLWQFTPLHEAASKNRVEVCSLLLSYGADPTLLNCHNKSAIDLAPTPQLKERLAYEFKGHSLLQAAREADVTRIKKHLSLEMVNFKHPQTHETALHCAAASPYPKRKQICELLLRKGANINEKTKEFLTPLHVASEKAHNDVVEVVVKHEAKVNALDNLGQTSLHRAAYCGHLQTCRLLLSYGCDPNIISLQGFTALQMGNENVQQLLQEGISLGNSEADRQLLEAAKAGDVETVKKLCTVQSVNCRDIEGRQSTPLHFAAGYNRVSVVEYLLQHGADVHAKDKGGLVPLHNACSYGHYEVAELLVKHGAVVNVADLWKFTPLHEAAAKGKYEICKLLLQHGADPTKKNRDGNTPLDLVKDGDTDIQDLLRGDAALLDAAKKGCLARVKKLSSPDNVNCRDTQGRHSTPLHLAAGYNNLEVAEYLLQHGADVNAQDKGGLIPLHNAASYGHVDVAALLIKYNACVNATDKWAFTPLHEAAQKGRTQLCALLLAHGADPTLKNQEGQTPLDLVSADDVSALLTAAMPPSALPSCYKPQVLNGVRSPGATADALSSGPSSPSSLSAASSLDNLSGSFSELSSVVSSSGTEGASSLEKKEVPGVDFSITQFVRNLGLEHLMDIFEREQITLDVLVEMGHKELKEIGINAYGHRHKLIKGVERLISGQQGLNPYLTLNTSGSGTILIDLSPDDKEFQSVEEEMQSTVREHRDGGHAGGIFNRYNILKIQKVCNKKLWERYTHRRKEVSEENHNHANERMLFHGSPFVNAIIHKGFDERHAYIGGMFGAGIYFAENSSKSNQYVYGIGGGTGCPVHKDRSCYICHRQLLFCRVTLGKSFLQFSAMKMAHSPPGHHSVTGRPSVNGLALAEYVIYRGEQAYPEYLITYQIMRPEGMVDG

Sequence of Poly [ADP-ribose] polymerase 1 (P09874 whole entry): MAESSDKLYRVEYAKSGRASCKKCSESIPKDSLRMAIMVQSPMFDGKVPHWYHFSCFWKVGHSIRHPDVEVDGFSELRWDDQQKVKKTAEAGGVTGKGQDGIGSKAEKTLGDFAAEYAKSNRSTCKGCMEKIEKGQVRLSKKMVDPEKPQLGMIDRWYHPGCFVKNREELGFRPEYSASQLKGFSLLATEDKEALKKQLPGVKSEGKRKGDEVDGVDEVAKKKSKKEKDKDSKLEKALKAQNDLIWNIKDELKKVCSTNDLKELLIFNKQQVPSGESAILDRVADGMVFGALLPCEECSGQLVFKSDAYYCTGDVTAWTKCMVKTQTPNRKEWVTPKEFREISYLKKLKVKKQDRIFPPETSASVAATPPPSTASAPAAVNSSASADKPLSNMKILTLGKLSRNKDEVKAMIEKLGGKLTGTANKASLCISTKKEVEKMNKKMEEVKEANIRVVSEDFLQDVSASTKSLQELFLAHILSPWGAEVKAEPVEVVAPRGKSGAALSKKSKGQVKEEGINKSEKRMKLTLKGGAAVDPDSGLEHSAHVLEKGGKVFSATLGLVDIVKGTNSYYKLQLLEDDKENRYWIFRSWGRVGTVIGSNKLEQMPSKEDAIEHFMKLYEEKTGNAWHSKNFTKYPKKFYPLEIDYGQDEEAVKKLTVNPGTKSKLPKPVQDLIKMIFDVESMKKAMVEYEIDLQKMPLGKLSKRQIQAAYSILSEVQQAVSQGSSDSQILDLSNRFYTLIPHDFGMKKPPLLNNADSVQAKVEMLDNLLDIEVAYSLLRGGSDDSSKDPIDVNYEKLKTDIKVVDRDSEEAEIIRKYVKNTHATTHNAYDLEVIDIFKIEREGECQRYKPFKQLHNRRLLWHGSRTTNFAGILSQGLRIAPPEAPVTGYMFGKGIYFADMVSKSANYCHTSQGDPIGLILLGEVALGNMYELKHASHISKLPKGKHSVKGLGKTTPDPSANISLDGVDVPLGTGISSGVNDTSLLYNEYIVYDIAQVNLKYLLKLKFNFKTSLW

Row | IC50 [1] [nM] | IC50 [2] [nM] | IC50 [3] [nM] | IC50 ([4]; read-out: IC50) [nM] | IC50 ([4]; read-out: pIC50 (converted)) [nM] | SMILES
1 | 110 | > 50000 | 700 | – | – | O=C1CCN(c2ccccc2C(=O)NCCc2ccc(Cl)cc2Cl)C(=O)N1
2 | 41 | – | 290 | 7900 | 7940 | COc1ccc2c(c1)C(CC(=O)NCCNC(=O)c1ccccc1N1CCC(=O)NC1=O)CC2=O (configuration not stated)
3 | – | – | 2500 | – | – | CN(Cc1ccc(-n2cccn2)cc1)C(=O)c1ccccc1N1CCC(=O)NC1=O
4 | – | – | 4600 | – | – | O=C1CCN(c2ccccc2C(=O)NCCc2ccccc2)C(=O)N1
5 | – | > 50000 | 350 | 910 | 912 | O=C1CCN(c2ccccc2C(=O)NCCc2ccc(Br)cc2)C(=O)N1
6 | – | > 50000 | 570 | 2400 | 2400 | O=C1CCN(c2ccccc2C(=O)NCCc2ccc(Cl)cc2)C(=O)N1
7 | 200 | 34000 | 290 | 330 | 331 | COc1ccc2c(c1)C(CC(=O)N1CCN(C(=O)c3ccccc3N3CCC(=O)NC3=O)CC1)CC2=O (configuration not stated)
8 | 220 | > 50000 | 330 | 8300 | 8320 | O=C1CCN(c2ccccc2C(=O)NCc2ccc(-n3cccn3)cc2)C(=O)N1
9 | 260 | 2200 | 250 | 8100 | 8130 | O=C1CCN(c2ccccc2C(=O)NCCc2nc(-c3ccccn3)no2)C(=O)N1
10 | 28 | > 50000 | 370 | 470 | 468 | COc1ccc2c(c1)C(CC(=O)N[C@@H](CNC(=O)c1ccccc1N1CCC(=O)NC1=O)C(N)=O)CC2=O (some centres not stated)
